The values below come from paper PMC6172217, “A handheld platform for target protein detection and quantification using disposable nanopore strips” (Scientific Reports, 2018).

For the assay, the system named is 309 bp/bisPNA-affibody. Briefly: EMSA, TNFα complex formation. The format is binding.

Take TNFα: the EMSA complex formation entry (309 bp/PNA-affibody + TNFα, 1 h room temperature, pH 7.4) is “full DNA/PNA-affibody/TNFα complex formation”. The “EMSA saturation, ratio TNFα to scaffold/bisPNA-affibody” value (band intensity appears to saturate) is listed as not below 3 X.
